Among the data in patent US20250074892A1, “CARBONYL BRIDGED HETEROCYCLIC COMPOUND, AND COMPOSITION AND APPLICATION THEREOF” (BEIJING SCITECH-MQ PHARMACEUTICALS LIMITED, priority 2022, published 2025) are IC50 values, retold here.

The structures appear in SMILES notation.

One assay has as its system HT29 cells. As to the kind of experiment: Inhibition of cell necrosis (CCK8 method), HT29 cells. The class given is cell-based, human. Conditions: HT29, Human TNF-α/AT-406/Z-VAD-FMK, 16 hours, CCK8. The procedure:
(§1) In this assay example 2, under the condition of inducing programmed cell necrosis of HT29 and L929 cell lines, different concentrations of the test compounds were added to test the IC50 of the rescue effect of the test compounds on the programmed necrosis.
(§2) • Compounds: dissolved in DMSO to make a 10 mM solution; • TNF-α: initial concentration of 100 µg/mL; • Z-VAD-FMK: dissolved in DMSO to make a 10 mM solution; • AT-406: dissolved in DMSO to make a 10 mM solution. • Cell lines: HT29 cells were cultured in McCoy's 5A medium containing 10% fetal bovine serum, 100 U/mL penicillin, and 100 µg/mL streptomycin, and L929 cells were cultured in MEM medium containing 10% horse serum, 100 U/mL penicillin, and 100 µg/mL streptomycin.
(§3) 1. The test compound was dissolved in DMSO to form a stock solution, and a gradient dilution was performed; the solution was then diluted with the corresponding culture medium to obtain a solution with 10 times the working concentration.
(§4) 2. The cells in the logarithmic growth phase were diluted with culture medium to a specific cell concentration. 80 µL of the cell suspension was added to a 96-well plate, so that the cell densities of HT29 and L929 were 1.2*10^4 cells/well and 2.0*10^4 cells/well, respectively. The plate was cultured in a 37° C., 5% carbon dioxide incubator overnight.
(§5) 3. […] of the compound solution was added to each well of the 96-well plate inoculated with cells. The compounds to be tested were serially diluted 4-fold to obtain 9 concentrations in duplicate, starting from a maximum concentration of 10 μM. At the same time, a control group without compound addition was set up.
(§6) 4. After the cells were cultured for another 30 minutes, 10 μL of the inducer mixture was added to each well. The final concentrations of Human TNF-α, AT-406 and Z-VAD-FMK in HT29 cells were 20 ng/mL, […] and 20 μM, respectively; and the final concentrations of Murine TNF-α and Z-VAD-FMK in L929 cells were 20 ng/mL and 25 μM, respectively.
(§7) 5. The 96-well plate in which compounds and inducer were added was placed in a 37° C., 5% carbon dioxide incubator for further culture, wherein HT29 cells were cultured for 16 hours and L929 cells were cultured for 4-8 hours. Cell viability was detected by CCK8. GraphPad Prism software was used to prepare a dose-effect curve and IC50 was calculated.
(In general: Tetrazolium assays rely on reduction of a dye to a coloured formazan, in cell work by metabolically active cells.)

The test system of a further assay is L929 cells. As to the kind of experiment: Inhibition of cell necrosis (CCK8 method), L929 cells. The assay is classed as cell-based, mouse. Conditions: 4-8 hours, CCK8. On the procedure: as §1, §2, §3, §4, §5, §6, §7
The mark [1] stands for this setting: Mus musculus, L929, L929, Murine TNF-α/Z-VAD-FMK.

As to `O=C(C1CCN(c2cc(-c3cc(OCCCO)ccc3Cl)ccn2)CC1)N1N=CCC1c1cc(F)cc(F)c1` (stereo not drawn) [Example 17, (1-(4-(2-chloro-5-(3-hydroxypropoxy)phenyl)pyridin-2-yl)piperidin-4-yl)(5-(3,5-difluorophenyl)-4,5-dihydro-1H-pyrazol-1-yl)methanone], the IC50 fell in the range of 10 to 50 nM with HT29 cells (Homo sapiens, HT-29, 16 h) and 50 to 100 nM in the assay with L929 cells (setting [1]).

With `COCCOc1ccc(C)c(-c2ccnc(N3CCC(C(=O)N4N=CCC4c4ccccc4F)CC3)c2)c1` (stereo not drawn) [Example 19, (5-(2-fluorophenyl)-4,5-dihydro-1H-pyrazol-1-yl)(1-(4-(5-(2-methoxyethoxy)-2-methylphenyl)pyridin-2-yl)piperidin-4-yl)methanone], the IC50 with HT29 cells (Homo sapiens, HT-29, 16 h) is ≤ 10 nM; with L929 cells (setting [1]), 10 to 50 nM.

Consider `Cc1ccc(OCCCO)cc1-c1ccnc(N2CCC(C(=O)N3N=CCC3c3ccccc3F)CC2)c1` (stereo not drawn) [Example 20, (5-(2-fluorophenyl)-4,5-dihydro-1H-pyrazol-1-yl)(1-(4-(5-(3-hydroxypropoxy)-2-methylphenyl)pyridin-2-yl)piperidin-4-yl)methanone], for which the IC50 in the assay with HT29 cells lay within 10 to 50 nM; with L929 cells (L929, Murine TNF-α/Z-VAD-FMK), 10 to 50 nM.

As for `O=C(C1CCN(c2cc(-c3cc(OCCO)ccc3F)ccn2)CC1)N1N=CCC1c1cc(F)cc(F)c1` (stereo not drawn) [Example 22, (5-(3,5-difluorophenyl)-4,5-dihydro-1H-pyrazol-1-yl)(1-(4-(2-fluoro-5-(2-hydroxyethoxy)phenyl)pyridin-2-yl)piperidin-4-yl)methanone], the IC50 in the assay with HT29 cells (Homo sapiens, HT-29, 16 h) was ≤ 10 nM; in the assay on L929 cells (setting [1]), 50 to 100 nM.

In the case of `O=C(C1CCN(c2cc(-c3cc(OCCCCCO)ccc3F)ccn2)CC1)N1N=CCC1c1cc(F)cc(F)c1` (stereo not drawn) [Example 25, (5-(3,5-difluorophenyl)-4,5-dihydro-1H-pyrazol-1-yl)(1-(4-(2-fluoro-5-((5-hydroxypentyl)oxy)phenyl)pyridin-2-yl)piperidin-4-yl)methanone], the IC50 with HT29 cells (Homo sapiens, HT-29, 16 h) was ≤ 10 nM; in the assay with L929 cells (setting [1]), 10 to 50 nM.

`CC(C)(O)CCCCOc1ccc(F)c(-c2ccnc(N3CCC(C(=O)N4N=CCC4c4cc(F)cc(F)c4)CC3)c2)c1` (stereo not drawn) [Example 26, (5-(3,5-difluorophenyl)-4,5-dihydro-1H-pyrazol-1-yl)(1-(4-(2-fluoro-5-((5-hydroxy-5-methylhexyl)oxy)phenyl)pyridin-2-yl)piperidin-4-yl)methanone]: the IC50 was ≤ 10 nM with HT29 cells (Homo sapiens, HT-29, 16 h) and 10 to 50 nM with L929 cells (setting [1]).

In the case of `O=C(C1CCN(c2cc(-c3cc(OCCCF)ccc3F)ccn2)CC1)N1N=CCC1c1cc(F)cc(F)c1` (stereo not drawn) [Example 27, (5-(3,5-difluorophenyl)-4,5-dihydro-1H-pyrazol-1-yl)(1-(4-(2-fluoro-5-(3-fluoropropoxy)phenyl)pyridin-2-yl)piperidin-4-yl)methanone], the IC50 was ≤ 10 nM in the assay with HT29 cells (Homo sapiens, HT-29, 16 h) and 50 to 100 nM with L929 cells (setting [1]).

With `COCCOc1ccc(C)c(-c2ccnc(N3CCC(C(=O)N4N=CCC4c4ccccc4)CC3)c2)c1` (stereo not drawn) [Example 28, (1-(4-(5-(2-methoxyethoxy)-2-methylphenyl)pyridin-2-yl)piperidin-4-yl)(5-phenyl-4,5-dihydro-1H-pyrazol-1-yl)methanone], the IC50 is ≤ 10 nM in the assay on HT29 cells (Homo sapiens, HT-29, 16 h) and 50 to 100 nM in the assay on L929 cells (setting [1]).

As for `Cc1ccc(OCCCO)cc1-c1ccnc(N2CCC(C(=O)N3N=CCC3c3ccccc3F)CC2)c1` (stereo not drawn) [Example 29, (5-(2-fluorophenyl)-4,5-dihydro-1H-pyrazol-1-yl)(1-(4-(5-(3-hydroxypropoxy)-2-methylphenyl)pyridin-2-yl)piperidin-4-yl)methanone], the 50% inhibitory concentration (IC50) in the assay on HT29 cells (Homo sapiens, HT-29, 16 h) lay in the range of 10 to 50 nM; in the assay on L929 cells (L929, Murine TNF-α/Z-VAD-FMK), 50 to 100 nM.

In the case of `COCCCOc1ccc(F)c(-c2ccnc(N3CCC(C(=O)N4N=CCC4c4cc(F)cc(F)c4)CC3)c2)c1` (stereo not drawn) [Example 30, (5-(3,5-difluorophenyl)-4,5-dihydro-1H-pyrazol-1-yl)(1-(4-(2-fluoro-5-(3-methoxypropoxy)phenyl)pyridin-2-yl)piperidin-4-yl)methanone], the IC50 in the assay with HT29 cells (Homo sapiens, HT-29, 16 h) is ≤ 10 nM; in the assay with L929 cells (setting [1]), 50 to 100 nM.

With `Cc1ccc(OCCCO)cc1-c1ccnc(N2CCC(C(=O)N3N=CCC3c3ccccc3)CC2)c1` (stereo not drawn) [Example 31, (1-(4-(5-(3-hydroxypropoxy)-2-methylphenyl)pyridin-2-yl)piperidin-4-yl)(5-phenyl-4,5-dihydro-1H-pyrazol-1-yl)methanone], the IC50 was ≤ 10 nM in the assay on HT29 cells (Homo sapiens, HT-29, 16 h) and 10 to 50 nM in the assay with L929 cells (setting [1]).

Turning to `COCCCCOc1ccc(C)c(-c2ccnc(N3CCC(C(=O)N4N=CCC4c4cc(F)cc(F)c4)CC3)c2)c1` (stereo not drawn) [Example 32, (5-(3,5-difluorophenyl)-4,5-dihydro-1H-pyrazol-1-yl)(1-(4-(5-(4-methoxybutoxy)-2-methylphenyl)pyridin-2-yl)piperidin-4-yl)methanone], the IC50 was ≤ 10 nM in the assay with HT29 cells (Homo sapiens, HT-29, 16 h) and 10 to 50 nM in the assay with L929 cells (L929, Murine TNF-α/Z-VAD-FMK).

`Cc1ccc(OCC2CCOCC2)cc1-c1ccnc(N2CCC(C(=O)N3N=CCC3c3cc(F)cc(F)c3)CC2)c1` (stereo not drawn) [Example 33, (5-(3,5-difluorophenyl)-4,5-dihydro-1H-pyrazol-1-yl)(1-(4-(2-methyl-5-((tetrahydro-2H-pyran-4-yl)methoxy)phenyl)pyridin-2-yl)piperidin-4-yl)methanone]: the IC50 in the assay on HT29 cells (Homo sapiens, HT-29, 16 h) was ≤ 10 nM; in the assay with L929 cells (setting [1]) it was 10 to 50 nM.

Regarding `COCCCCOc1ccc(C)c(-c2ccnc(N3CCC(C(=O)N4N=CCC4c4cc(F)cc(F)c4)CC3)c2)c1` (stereo not drawn) [Example 34, (5-(3,5-difluorophenyl)-4,5-dihydro-1H-pyrazol-1-yl)(1-(4-(5-(4-methoxybutoxy)-2-methylphenyl)pyridin-2-yl)piperidin-4-yl)methanone], the IC50 in the assay with HT29 cells is 10 to 50 nM; in the assay with L929 cells (L929, Murine TNF-α/Z-VAD-FMK), 50 to 100 nM.

With `Cc1ccc(OCCCCO)cc1-c1ccnc(N2CCC(C(=O)N3N=CCC3c3cc(F)cc(F)c3)CC2)c1` (stereo not drawn) [Example 35, (5-(3,5-difluorophenyl)-4,5-dihydro-1H-pyrazol-1-yl)(1-(4-(5-(4-hydroxybutoxy)-2-methylphenyl)pyridin-2-yl)piperidin-4-yl)methanone], the IC50 in the assay with HT29 cells fell in the range of 10 to 50 nM; in the assay on L929 cells (L929, Murine TNF-α/Z-VAD-FMK), 50 to 100 nM.

Take `O=C(C1CCN(c2cc(-c3cc(OCCCCO)ccc3F)ccn2)CC1)N1N=CCC1c1cc(F)cc(F)c1` (stereo not drawn) [Example 36, (5-(3,5-difluorophenyl)-4,5-dihydro-1H-pyrazol-1-yl)(1-(4-(2-fluoro-5-(4-hydroxybutoxy)phenyl)pyridin-2-yl)piperidin-4-yl)methanone]: the IC50 is ≤ 10 nM in the assay with HT29 cells (Homo sapiens, HT-29, 16 h) and 50 to 100 nM in the assay with L929 cells (setting [1]).

On to `O=C(C1CCN(c2cc(-c3cc(OCC(F)(F)CO)ccc3F)ccn2)CC1)N1N=CCC1c1cc(F)cc(F)c1` (stereo not drawn) [Example 37, (1-(4-(5-(2,2-difluoro-3-hydroxypropoxy)-2-fluorophenyl)pyridin-2-yl)piperidin-4-yl) (5-(3,5-difluorophenyl)-4,5-dihydro-1H-pyrazol-1-yl)methanone], for which the IC50 in the assay on HT29 cells (Homo sapiens, HT-29, 16 h) was ≤ 10 nM; with L929 cells (setting [1]) it was 10 to 50 nM.

For `O=C(C1CCN(c2nccc(-c3cc(OCCCO)ccc3F)n2)CC1)N1N=CCC1c1cc(F)cc(F)c1` (stereo not drawn) [Example 38, (5-(3,5-difluorophenyl)-4,5-dihydro-1H-pyrazol-1-yl)(1-(4-(2-fluoro-5-(3-hydroxypropoxy)phenyl)pyrimidin-2-yl)piperidin-4-yl)methanone], the IC50 is 10 to 50 nM with HT29 cells (Homo sapiens, HT-29, 16 h) and 50 to 100 nM in the assay with L929 cells (setting [1]).

Turning to `CC(C)(O)CCOc1ccc(F)c(-c2ccnc(N3CCC(C(=O)N4N=CCC4c4cc(F)cc(F)c4)CC3)n2)c1` (stereo not drawn) [Example 39, (5-(3,5-difluorophenyl)-4,5-dihydro-1H-pyrazol-1-yl)(1-(4-(2-fluoro-5-(3-hydroxy-3-methylbutoxy)phenyl)pyrimidin-2-yl)piperidin-4-yl)methanone], the IC50 is ≤ 10 nM in the assay on HT29 cells (Homo sapiens, HT-29, 16 h) and 50 to 100 nM in the assay on L929 cells (setting [1]).

As for `CCC(O)(CC)COc1ccc(F)c(-c2ccnc(N3CCC(C(=O)N4N=CCC4c4cc(F)cc(F)c4)CC3)c2)c1` (stereo not drawn) [Example 44, [5-(3,5-difluorophenyl)-4,5-dihydro-1H-pyrazol-1-yl]-[1-[4-[5-(2-ethyl-2-hydroxybutoxy)-2-fluorophenyl]pyridin-2-yl]piperidin-4-yl]methanone], the IC50 in the assay with HT29 cells (Homo sapiens, HT-29, 16 h) is ≤ 10 nM; with L929 cells (setting [1]), 10 to 50 nM.

On to `O=C(C1CCN(c2cc(-c3cc(OCC4(O)CC4)ccc3F)ccn2)CC1)N1N=CCC1c1cc(F)cc(F)c1` (stereo not drawn) [Example 45, [5-(3,5-difluorophenyl)-4,5-dihydro-1H-pyrazol-1-yl]-[1-[4-[2-fluoro-5-[(1-hydroxycyclopropyl)methoxy]phenyl]pyridin-2-yl]piperidin-4-yl]methanone], for which the IC50 is ≤ 10 nM in the assay on HT29 cells (Homo sapiens, HT-29, 16 h) and 10 to 50 nM in the assay with L929 cells (setting [1]).

Usually IC50 stands for the concentration that gives 50% inhibition.
